Measured values reported in patent US7138231B2 (priority 2000, dated 2006).

Key:
[1] = tested on: HIV-1 patient-derived protease and reverse transcriptase segments (N88S in PR) in resistance test vectors; assay: Phenotypic drug susceptibility test with resistance test vectors from patient samples; type: cell-based; settings: patient sample RTV-627
[2] = tested on: HIV-1 patient viruses with protease L90M; assay: Phenotypic susceptibility profiles of 58 patient virus samples with L90M, no other primary mutations; type: cell-based; settings: for % w with SQV FC > 2.5: L90M; for % FC > 2.5: SQV
[3] = tested on: HIV-1 patient viruses with protease L90M; assay: Phenotypic susceptibility profiles of 333 patient virus samples with L90M (not 30 or 50); type: cell-based; settings: for % with SQV FC > 2.5 / wt % > 2.5 / wt % > 10: L90M
[4] = tested on: HIV-1 variants with protease substitutions; settings: both substitutions G48V-L90M; cited from earlier work
HIV-1 = settings: cited from earlier work
[5] = tested on: HIV-1 protease site-directed mutants (N88S, L63P, V77I, M46L) in resistance test vector; assay: Phenotypic susceptibility assay of resistance test vectors with site-directed mutations in PR
Text: The resistance test vectors containing a functional luciferase gene cassette were constructed and host cells were transfected with the resistance test vector DNA. […] The resistance test vector viral particles produced by transfecting the resistance test vector DNA into host cells, either in the presence or absence of protease inhibitors, were used to infect target host cells grown either in the absence of NRTI or NNRTI or in the presence of increasing concentrations of the drug. Luciferase activity in infected target host cells in the presence of drug was compared to the luciferase activity in infected target host cells in the absence of drug. […] The IC50 values were determined by plotting percent drug inhibition vs. log10 drug concentration.
Host cells were seeded in 10-cm-diameter dishes and were transfected one day after plating with resistance test vector plasmid DNA and the envelope expression vector. Transfections were performed using a calcium-phosphate co-precipitation procedure. The cell culture media containing the DNA precipitate was replaced with fresh medium, from one to 24 hours, after transfection. Cell culture media containing resistance test vector viral particles was harvested one to four days after transfection and was passed through a 0.45-mm filter before being stored at −80° C. HIV capsid protein (p24) levels in the harvested cell culture media were determined by an EIA method as described by the manufacturer (SIAC; Frederick, Md.). Before infection, target cells (293 and 293/T) were plated in cell culture media. Control infections were performed using cell culture media from mock transfections (no DNA) or transfections containing the resistance test vector plasmid DNA without the envelope expression plasmid. One to three or more days after infection the media was removed and cell lysis buffer (Promega) was added to each well. Cell lysates were assayed for luciferase activity. The inhibitory effect of the drug was determined using the following equation: % luciferase inhibition=[1−(RLUluc[drug]RLUluc)]×100 where RLUluc [drug] is the relative light unit of luciferase activity in infected cells in the presence of drug and RLUluc is the Relative Light Unit of luciferase activity in infected cells in the absence of drug. IC50 values were obtained from the sigmoidal curves that were generated from the data by plotting the percent inhibition of luciferase activity vs. the log10 drug concentration.
Mutations are introduced into the resistance test vector through any of the widely known methods for site-directed mutagenesis. […] A resistance test vector containing the specific mutation or group of mutations are then tested using the phenotypic susceptibility assay described above and the susceptibility profile is compared to that of a genetically defined wild-type (drug susceptible) resistance test vector which lacks the specific mutations.
Resistance test vectors were constructed containing the N88S mutation alone and in combination with other substitutions in PR (L63P, V77I and M46L) known to modulate the HIV susceptibility to PRIs. Mutations were introduced into the resistance test vector using the mega-primer PCR method for site-directed mutagenesis.

CC(C)(C)NC(=O)[C@@H]1C[C@@H]2CCCC[C@@H]2CN1C[C@@H](O)[C@H](Cc1ccccc1)NC(=O)[C@H](CC(N)=O)NC(=O)c1ccc2ccccc2n1 [saquinavir]
change in susceptibility [1]: increase | % w with SQV FC > 2.5 ([2]; number of secondary mutations 0): 53% | % w with SQV FC > 2.5 ([2]; number of secondary mutations 1): 47% | % w with SQV FC > 2.5 ([2]; number of secondary mutations 2): 43% | % w with SQV FC > 2.5 ([2]; number of secondary mutations 3): 68% | % w with SQV FC > 2.5 ([2]; number of secondary mutations 4): 77% | % w with SQV FC > 2.5 ([2]; number of secondary mutations 5): 100% | % w with SQV FC > 2.5 ([2]; number of secondary mutations 6): 100% | % FC > 2.5 ([2]; L90M + mutation at position 10): 65% | % FC > 2.5 ([2]; L90M + mutation at position 71): 78% | % FC > 2.5 ([2]; L90M + mutation at position 71, listed as SQV): 78% | % FC > 2.5 ([2]; L90M + mutation at position 73): 79% | % FC > 2.5 ([2]; L90M + mutation at position 73, listed as SQV): 79% | % FC > 2.5 ([2]; L90M + mutation at position 77): 76% | % FC > 2.5 ([2]; listed as 90: all viruses with L90M): 55% | % with SQV FC > 2.5 ([3]; number of secondary mutations (weighted count) 0): 23.5% | % with SQV FC > 2.5 ([3]; number of secondary mutations (weighted count) 1): 25.0% | % with SQV FC > 2.5 ([3]; number of secondary mutations (weighted count) 2): 69.4% | % with SQV FC > 2.5 ([3]; number of secondary mutations (weighted count) 3): 85.7% | % with SQV FC > 2.5 ([3]; number of secondary mutations (weighted count) 4): 97.3% | % with SQV FC > 2.5 ([3]; number of secondary mutations (weighted count) 5): 100% | % with SQV FC > 2.5 ([3]; number of secondary mutations (weighted count) 6 or more): 100% | wt % > 2.5 ([3]; Saquinavir FC>2.5, position 10 wild type): 56.4% | wt % > 2.5 ([3]; Saquinavir FC>2.5, position 20 wild type): 73.9% | wt % > 2.5 ([3]; Saquinavir FC>2.5, position 33 wild type): 77.4% | wt % > 2.5 ([3]; Saquinavir FC>2.5, position 36 wild type): 74.9% | wt % > 2.5 ([3]; Saquinavir FC>2.5, position 37 wild type): 76.4% | wt % > 2.5 ([3]; Saquinavir FC>2.5, position 48 wild type): 78.1% | wt % > 2.5 ([3]; Saquinavir FC>2.5, position 53 wild type): 77.3% | wt % > 2.5 ([3]; Saquinavir FC>2.5, position 54 wild type): 68.1% | wt % > 2.5 ([3]; Saquinavir FC>2.5, position 63 wild type): 37.5% | wt % > 2.5 ([3]; Saquinavir FC>2.5, position 64 wild type): 83.1% | wt % > 2.5 ([3]; Saquinavir FC>2.5, position 66 wild type): 78.4% | wt % > 2.5 ([3]; Saquinavir FC>2.5, position 71 wild type): 58.0% | wt % > 2.5 ([3]; Saquinavir FC>2.5, position 73 wild type): 73.6% | wt % > 2.5 ([3]; Saquinavir FC>2.5, position 84 wild type): 70.7% | wt % > 2.5 ([3]; Saquinavir FC>2.5, position 93 wild type): 85.6% | mt % > 2.5 ([3]; Saquinavir FC>2.5, listed as 90: all samples with L90M): 79.3% | wt % > 10 ([3]; Saquinavir FC>10, position 10 wild type): 20.5% | wt % > 10 ([3]; Saquinavir FC>10, position 20 wild type): 33.9% | wt % > 10 ([3]; Saquinavir FC>10, position 23 wild type): 42.4% | wt % > 10 ([3]; Saquinavir FC>10, position 35 wild type): 38.8% | wt % > 10 ([3]; Saquinavir FC>10, position 36 wild type): 34.2% | wt % > 10 ([3]; Saquinavir FC>10, position 48 wild type): 40.8% | wt % > 10 ([3]; Saquinavir FC>10, position 53 wild type): 39.8% | wt % > 10 ([3]; Saquinavir FC>10, position 54 wild type): 32.8% | wt % > 10 ([3]; Saquinavir FC>10, position 58 wild type): 41.6% | wt % > 10 ([3]; Saquinavir FC>10, position 62 wild type): 38.5% | wt % > 10 ([3]; Saquinavir FC>10, position 64 wild type): 46.1% | wt % > 10 ([3]; Saquinavir FC>10, position 71 wild type): 29.0% | wt % > 10 ([3]; Saquinavir FC>10, position 73 wild type): 39.4% | wt % > 10 ([3]; Saquinavir FC>10, position 77 wild type): 49.5% | wt % > 10 ([3]; Saquinavir FC>10, position 84 wild type): 24.9% | wt % > 10 ([3]; Saquinavir FC>10, position 93 wild type): 50.7% | mt % > 10 ([3]; Saquinavir FC>10, listed as 90: all samples with L90M): 43.5% | loss of susceptibility [4]: > 100 fold | patients in whom resistant variants emerge (HIV-1; after 1 year of monotherapy with 1,800 mg daily): approximately 45% | frequency of resistance (HIV-1; combination therapy with zidovudine, zalcitabine, and saquinavir): 22% | Fold Change vs. reference ([5]; site-directed mutation N88S): 0.47 fold | Fold Change vs. reference ([5]; site-directed mutations L63P): 1.04 fold | Fold Change vs. reference ([5]; site-directed mutations L63P, N88S): 1.44 fold | Fold Change vs. reference ([5]; site-directed mutations M46L, L63P, V77I, N88S): 1.45 fold
